One series deals with Class I HDAC. Kind of series: P21 reporter gene assay in HeLa cells. It is filed as cell-based. Conditions: 24 hours. The method, then: HDAC subtype selectivity inhibition assay of tested compounds was carried out by several reporter gene assays experiments. Briefly, HeLa cells were seeded in 96-well plates the day before transfection to give a confluence of 50-80%. Cells were transfected with one of reporter gene plasmid containing a promoter sequence or response element upstream of a luciferase gene construct using FuGene6 transfection reagent according to the manufacturer's instruction (Roche). The promoters or response elements including p21-promoter was fused upstream to the luciferase gene reporter construct. For normalizing the transfection efficiency, a GFP expression plasmid was cotransfected. Cells were allowed to express protein for 24 hours followed by addition of individual compounds or the vehicle (DMSO). 24 hours later the cells were harvested, and the luciferase assay and GFP assay were performed using corresponding assay kits according to the manufacturer's instructions (Promega).
For orientation: A reporter such as luciferase makes a cellular process visible.

The subject of another series is A-498. Put plainly: Tumor cell proliferation (MTS), A-498. The series is classed as cell-based. The following applies: Homo sapiens, A498; 72 hours, complete medium. On the procedure:
(§1) Measurement of In Vivo Cell Proliferation:
(§2) Tumor cells were trypsinized and plated into 96-well plates at 3,000 per well and incubated in complete medium with 10% FBS for 24 hours. Compounds were added over a final concentration range of 100 μmol/L to 100 nmol/L in 0.1% DMSO and incubated for 72 hours in complete medium. The effects on proliferation were determined by addition of MTS reagent (Promega) according to the instruction, incubation for 2 hours at 37° C. in CO2 incubator, and record the absorbance at 490 nm using an ELISA plate reader.

The test system of another series is A549. Put plainly: Tumor cell proliferation (MTS), A549. The series is classed as cell-based. The following applies: Homo sapiens, 72 hours, complete medium. The method, then: as §1, §2
(§3) Human Cell Lines are Listed Below:
A549: Non small cell lung carcinoma

A further series relates to Bel-7402. Kind of series: Tumor cell proliferation (MTS), Bel-7402. The following applies: Homo sapiens, 72 hours, complete medium. It is filed as cell-based. The method, then: as §1, §2, §3
Bel-7402: Hepatocellular carcinoma

A further series deals with HCT-8. Kind of series: Tumor cell proliferation (MTS), HCT-8. The series is classed as cell-based. The following applies: Homo sapiens, 72 hours, complete medium. The method, then: as §1, §2, §3
HCT-8: Ileocecal colorectal adenocarcinoma

Another series concerns MCF-7. Put plainly: Tumor cell proliferation (MTS), MCF-7. The following applies: Homo sapiens, MCF7; 72 hours, complete medium. The series is classed as cell-based. On the procedure:
as §1, §2, §3
MCF-7: Mammary gland adenocarcinoma

A further series has as its target T1, human PDGFRβ (Homo sapiens, UniProt P09619).
T1 construct: expressed in transfected cells
Put plainly: PDGF dependent cell proliferation (MTS). It is filed as cell-based. Conditions: PDGFRβ NIH-3T3 cells, PDGF BB 50 ng/ml, 72 hours, serum-free medium; read-out: GI50 nM (PDGF ligand-dependent cell proliferation). On the procedure:
PDGF Dependent Cell Proliferation:
NIH-3T3 mouse fibroblasts cell line engineered to stably express human PDGFIRβ was constructed and used to evaluate PDGF dependent cell proliferation. PDGFRβ NIH-3T3 cells were plated into 96-well plates at 5,000 per well and incubated with serum-free medium for 24 hours. Compounds and PDGF BB (50 ng/ml) were added and incubated for 72 hours in serum-free medium. The effects on proliferation were determined by addition of MTS reagent (Promega) according to the instruction, incubation for 2 hours at 37° C. in CO2 incubator, and record the absorbance at 490 nm using an ELISA plate reader.

The subject of the next series is HUVEC cells. Put plainly: VEGF dependent cell proliferation (MTS). The series is classed as cell-based. The following applies: Homo sapiens, VEGF 165 50 ng/ml, 72 hours, serum-free medium, read-out: GI50 nM (VEGF ligand-dependent cell proliferation). On the procedure:
VEGF Dependent Cell Proliferation:
HUVEC cells were plated into 96-well plates at 6,000 per well and incubated with serum-free medium for 2 hours. Compounds and VEGF 165 (50 ng/ml) were added and incubated for 72 hours in serum-free medium. The effects on proliferation were determined by addition of MTS reagent (Promega) according to the instruction, incubation for 2 hours at 37° C. in CO2 incubator, and record the absorbance at 490 nm using an ELISA plate reader.

Series [1] deals with total HDAC enzyme (HeLa extract). Put plainly: In vitro inhibition of total HDAC enzyme activity (HDAC Fluorimetric Assay/Drug Discovery Kit). The series is classed as biochemical. The method, then:
Measurement of In Vitro Inhibition of Total HDAC Enzyme Activity:
The in vitro inhibition of total HDAC enzyme was determined by HDAC Fluorimetric Assay/Drug Discovery Kit (BIOMOL) according to manufacture's instruction. • 1. Add Assay buffer, diluted trichostatin A or test inhibitor to appropriate wells of the microtiter plate. Following table lists examples of various assay types and the additions required for each test.
• 2. Add diluted HeLa extract or other HDAC sample to all wells except those that are to be “No Enzyme Controls” (Blank). • 3. Allow diluted Fluor de Lys™ Substrate and the samples in the microtiter plate to equilibrate to assay temperature (25° C.). • 4. Initiate HDAC reactions by adding diluted substrate (25 μl) to each well and mixing thoroughly. • 5. Allow HDAC reactions to proceed for desired length of time and then stop them by addition of Fluor de Lys™ Developer (50 μl). Incubate plate at room temperature (25° C.) for 10-15 min. • 6. Read samples in a microtiter-plate reading fluorimeter capable of excitation at a wavelength in the range 350-380 nm and detection of emitted light in the range 440-460 nm. Measurement of In Vivo Inhibition of HDAC Subtype Activity: […]

A value given as a limit tells only on which side of the number the result lay.

T1 sequence (P09619 33-1106): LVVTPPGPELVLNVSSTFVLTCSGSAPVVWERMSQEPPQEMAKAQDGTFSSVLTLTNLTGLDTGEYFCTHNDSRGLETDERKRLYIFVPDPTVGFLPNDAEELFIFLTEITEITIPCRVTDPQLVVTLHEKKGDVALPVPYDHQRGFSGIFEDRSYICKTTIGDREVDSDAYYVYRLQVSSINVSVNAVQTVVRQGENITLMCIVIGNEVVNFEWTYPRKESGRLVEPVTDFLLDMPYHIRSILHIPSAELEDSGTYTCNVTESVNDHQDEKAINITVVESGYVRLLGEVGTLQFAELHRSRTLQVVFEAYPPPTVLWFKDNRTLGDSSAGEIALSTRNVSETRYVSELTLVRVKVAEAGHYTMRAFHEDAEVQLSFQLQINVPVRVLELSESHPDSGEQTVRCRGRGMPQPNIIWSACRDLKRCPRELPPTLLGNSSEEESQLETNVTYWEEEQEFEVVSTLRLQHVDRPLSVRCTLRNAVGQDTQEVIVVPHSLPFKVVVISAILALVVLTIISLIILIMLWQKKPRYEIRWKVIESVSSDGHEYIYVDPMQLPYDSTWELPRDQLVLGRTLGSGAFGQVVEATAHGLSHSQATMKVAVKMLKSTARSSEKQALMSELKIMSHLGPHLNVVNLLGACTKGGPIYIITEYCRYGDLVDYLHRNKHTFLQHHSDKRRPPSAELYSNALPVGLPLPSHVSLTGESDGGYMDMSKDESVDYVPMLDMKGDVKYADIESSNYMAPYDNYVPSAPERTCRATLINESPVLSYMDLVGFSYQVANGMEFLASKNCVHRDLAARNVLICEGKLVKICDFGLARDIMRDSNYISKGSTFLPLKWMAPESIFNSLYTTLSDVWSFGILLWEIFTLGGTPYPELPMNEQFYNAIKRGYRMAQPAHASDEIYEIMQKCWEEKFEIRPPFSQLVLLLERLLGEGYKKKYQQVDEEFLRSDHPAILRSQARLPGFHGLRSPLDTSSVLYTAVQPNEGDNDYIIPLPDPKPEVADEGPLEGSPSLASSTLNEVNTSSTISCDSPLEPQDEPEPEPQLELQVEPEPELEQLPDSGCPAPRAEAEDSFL

Regarding `Nc1cc(F)ccc1NC(=O)c1ccc(CNC(=O)/C=C/c2cccnc2)cc1` [CS055, Chidamide, reference compound], the “Class I HDAC (P21 reporter assay) Fold Induction at 10 μM” value in the series on Class I HDAC came out at 33 Fold. Further, the GI50 with A-498 stood at 12.1 µM; in the series on A549, 11.2 µM; in the series on Bel-7402, 18.9 µM; with HCT-8, 7.71 µM; with MCF-7 it was 3.87 µM.
For `COc1cc2ncnc(Oc3ccc4c(C(=O)Nc5ccccc5N)cccc4c3)c2cc1OC` [Example 16, N-(2-aminophenyl)-6-(6,7-dimethoxyquinazolin-4-yloxy)-1-naphthamide], the GI50 at human PDGFRβ was 48 nM; with HUVEC cells, 3 nM; in the series on A-498, no less than 30 µM; in the series on A549, 30 µM; in the series with Bel-7402 it was 30 µM; with HCT-8 it was 12.3 µM. This molecule registered a GI50 in the series with MCF-7 of 30 µM. Besides, the “% inhibition of total HDAC enzyme activity at 30 μM” value (from here on “% inhibition”) in series [1] is 8.6%. Besides, the “Class I HDAC (P21 reporter assay) Fold Induction at 10 μM” value in the series with Class I HDAC turned out to be 1.3 Fold.
Take `COc1cc2ncnc(Oc3ccc4c(C(=O)Nc5ccc(F)cc5N)cccc4c3)c2cc1OC` [Example 17, N-(2-amino-4-fluorophenyl)-6-(6,7-dimethoxyquinazolin-4-yloxy)-1-naphthamide]: the GI50 on human PDGFRβ is 40 nM; in the series with HUVEC cells, 3 nM; in the series with A-498 it was no less than 30 µM; in the series on A549 it was 30 µM; with Bel-7402 it was 30 µM; in the series on HCT-8 it was 3 µM. This molecule also showed a GI50 with MCF-7 of 30 µM. Also, in [1], the “% inhibition” value is listed as 22.5%. Besides, in the series on Class I HDAC, the “Class I HDAC (P21 reporter assay) Fold Induction at 10 μM” value is given as 1.1 Fold.
Turning to `COc1cc2ncnc(Oc3ccc4c(C(=O)Nc5ccc(C)cc5N)cccc4c3)c2cc1OC` [Example 18, N-(2-amino-4-methylphenyl)-6-(6,7-dimethoxyquinazolin-4-yloxy)-1-naphthamide], the GI50 is 15 nM at human PDGFRβ and 7 nM in the series with HUVEC cells. Moreover, in series [1], the “% inhibition” value was 17.1%. In addition, the “Class I HDAC (P21 reporter assay) Fold Induction at 10 μM” value with Class I HDAC is 1.1 Fold.
Consider `COc1ccc(NC(=O)c2cccc3cc(Oc4ncnc5cc(OC)c(OC)cc45)ccc23)c(N)c1` [Example 19, N-(2-amino-4-methoxyphenyl)-6-(6,7-dimethoxyquinazolin-4-yloxy)-1-naphthamide], for which the GI50 turned out to be 11 nM on human PDGFRβ and 23 nM in the series on HUVEC cells. In addition, in [1], the “% inhibition” value is 21.9%. In addition, the “Class I HDAC (P21 reporter assay) Fold Induction at 10 μM” value with Class I HDAC was found to be 1.4 Fold.
For `COc1cc2ncnc(Oc3ccc4c(C(=O)Nc5ccc(Cl)cc5N)cccc4c3)c2cc1OC` [Example 20, N-(2-amino-4-chlorophenyl)-6-(6,7-dimethoxyquinazolin-4-yloxy)-1-naphthamide], in that order: 23 nM, 6 nM, 21.9% and 1.5 Fold.
As for `COc1cc2ncnc(Oc3ccc4c(C(=O)Nc5ccc(Br)cc5N)cccc4c3)c2cc1OC` [Example 21, N-(2-amino-4-bromophenyl)-6-(6,7-dimethoxyquinazolin-4-yloxy)-1-naphthamide], the GI50 on human PDGFRβ turned out to be 19 nM; in the series with HUVEC cells, 5 nM. Besides, in series [1], the “% inhibition” value was determined as 18.6%. Besides, in the series with Class I HDAC, the “Class I HDAC (P21 reporter assay) Fold Induction at 10 μM” value was determined as 1.1 Fold.
In the case of `COc1cc2ncnc(Oc3ccc4c(C(=O)Nc5ccc(C(F)(F)F)cc5N)cccc4c3)c2cc1OC` [Example 22, N-(2-amino-4-trifluoromethylphenyl)-6-(6,7-dimethoxyquinazolin-4-yloxy)-1-naphthamide], the GI50 at human PDGFRβ is 372 nM; with HUVEC cells, 3 nM. For the same molecule, in series [1], the “% inhibition” value is listed as 17%. Moreover, in the series on Class I HDAC, the “Class I HDAC (P21 reporter assay) Fold Induction at 10 μM” value is 1.1 Fold.
For `COc1cc2ncnc(Oc3ccc4c(C(=O)NCc5ccc(C(=O)Nc6ccccc6N)cc5)cccc4c3)c2cc1OC` [Example 23, N-(4-((2-aminophenyl)carbamoyl)benzyl)-6-(6,7-dimethoxyquinazolin-4-yloxy)-1-naphthamide], the GI50 was found to be 148 nM at human PDGFRβ; 18 nM in the series with HUVEC cells; 14.7 µM in the series on A-498; 30 µM in the series with A549; 30 µM with Bel-7402; 5.7 µM in the series with HCT-8. The molecule also gave a GI50 in the series on MCF-7 of 4.3 µM. In series [1], the “% inhibition” value is 49.4%. For the same molecule, the “Class I HDAC (P21 reporter assay) Fold Induction at 10 μM” value in the series with Class I HDAC was determined as 11.3 Fold.
Consider `COc1cc2ncnc(Oc3ccc4c(C(=O)NCc5ccc(C(=O)Nc6ccccc6N)cn5)cccc4c3)c2cc1OC` [Example 25], for which the GI50 is 69 nM at human PDGFRβ; 13 nM in the series with HUVEC cells; 14.7 µM in the series on A-498; 30 µM with A549; 30 µM in the series on Bel-7402; 4.9 µM in the series on HCT-8. In the series on MCF-7, this molecule displayed a GI50 of 6.1 µM. For the same molecule, in series [1], the “% inhibition” value was determined as 47.9%. The “Class I HDAC (P21 reporter assay) Fold Induction at 10 μM” value with Class I HDAC is recorded as 12.1 Fold.
With `Nc1ccccc1NC(=O)c1cccc2cc(Oc3ccnc4ccccc34)ccc12` [Example 39, N-(2-aminophenyl)-6-(quinolin-4-yloxy)-1-naphthamide], the values for the GI50 at human PDGFRβ and in the series with HUVEC cells were 32 nM and 107 nM, respectively. In series [1], the “% inhibition” value stood at 15.9%. Besides, the “Class I HDAC (P21 reporter assay) Fold Induction at 10 μM” value in the series on Class I HDAC amounted to 1.2 Fold.
On to `Cc1cccc2c(Oc3ccc4c(C(=O)Nc5ccccc5N)cccc4c3)ccnc12` [Example 40, N-(2-aminophenyl)-6-(8-methylquinolin-4-yloxy)-1-naphthamide], for which the GI50 in the series on HUVEC cells is 1000 nM. Also, the “% inhibition” value in [1] is recorded as 22.2%. Besides, the “Class I HDAC (P21 reporter assay) Fold Induction at 10 μM” value with Class I HDAC was determined as 1.3 Fold.
For `Nc1ccccc1NC(=O)c1cccc2cc(Oc3ccnc4cc(Cl)ccc34)ccc12` [Example 41, N-(2-aminophenyl)-6-(7-chloroquinolin-4-yloxy)-1-naphthamide], the GI50 came to 479 nM on human PDGFRβ and 105 nM with HUVEC cells. Besides, the “% inhibition” value in series [1] is recorded as 19.3%. For the same molecule, the “Class I HDAC (P21 reporter assay) Fold Induction at 10 μM” value in the series on Class I HDAC is reported as 1.1 Fold.
Consider `Nc1ccccc1NC(=O)c1cccc2cc(Oc3ccnc4c(C(F)(F)F)cccc34)ccc12` [Example 42, N-(2-aminophenyl)-6-(8-trifluoromethylquinolin-4-yloxy)-1-naphthamide], for which the GI50 on human PDGFRβ turned out to be 48 nM; with HUVEC cells, 1000 nM. Besides, in series [1], the “% inhibition” value turned out to be 6.2%. Further, the “Class I HDAC (P21 reporter assay) Fold Induction at 10 μM” value with Class I HDAC worked out at 1.3 Fold.
Consider `Nc1ccccc1NC(=O)c1ccc(CNC(=O)c2cccc3cc(Oc4ccnc5cc(Cl)ccc45)ccc23)cc1` [Example 43, N-(4-((2-aminophenyl)carbamoyl)benzyl)-6-(7-chloroquinolin-4-yloxy)-1-naphthamide], for which, in the series with HUVEC cells, the GI50 is 288 nM. In addition, the “% inhibition” value in series [1] is 38.7%. Moreover, the “Class I HDAC (P21 reporter assay) Fold Induction at 10 μM” value in the series with Class I HDAC is on record as 6.1 Fold.

(Values after patent US8211901B2, “Naphthamide derivatives as multi-target protein kinase inhibitors and histone deacetylase inhibitors” (Shenzhen Chipscreen Biosciences Ltd., priority 2009, dated 2012).)
